Results: the supplement of paper PMC10307832

Columns and labels:
Test in all cases: relative viability (nuclei count vs DMSO), 5 days (fraction); higher = more cells survive
[1] = compound: C1CNCCC1C2=CC(=NN2)C3=CC=NC=C3 + COc1cccc2cc(-c3nc([C@H]4CC[C@H](C(=O)O)CC4)n4ncnc(N)c34)[nH]c12 [OSI-027] (partner 0.5 µM)
Method in brief: (§1)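 Lung cancer cell lines were pin-tool dosed in 1536-well plates on the day after seeding, with either a lone drug or a fixed anchor-drug dose plus five library-drug doses (not always all listed) in √10 steps. Nuclei were counted on 4× images after 5 days. Relative viability is the ratio of treated-well to vehicle-well nuclei counts, with each value a median of duplicate plates.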

[2] = compound: C[C@@H](N)c1ccc(C(=O)Nc2ccnc3[nH]ccc23)cc1 + Cc1cc(Nc2cc(N3CCN(C)CC3)nc(Sc3ccc(NC(=O)C4CC4)cc3)n2)n[nH]1 [Tozasertib] (partner 0.1 µM)
Method in brief: as §1

[3] = compound: O[C@H]1CC[C@H](Nc2ncc3nc(Nc4c(F)cc(F)cc4F)n([C@H]4CCOC4)c3n2)CC1 [Tanzisertib] + C[C@@H](Oc1cc(-c2cnn(C3CCNCC3)c2)cnc1N)c1c(Cl)ccc(F)c1Cl [Crizotinib] (partner 1 µM)
Method in brief: as §1

[4] = compound: O[C@H]1CC[C@H](Nc2ncc3nc(Nc4c(F)cc(F)cc4F)n([C@H]4CCOC4)c3n2)CC1 [Tanzisertib] + O=C(CCCCCCC(=O)Nc1ccccc1)NO [Vorinostat] (partner 1 µM)
Method in brief: as §1

Cell Line	relative viability ([1]; first compound 0.08 µM)	relative viability ([1]; first compound 0.8 µM)	relative viability ([1]; first compound 2.53 µM)	relative viability ([1]; first compound 8 µM)	relative viability ([2]; first compound 0.04 µM)	relative viability ([2]; first compound 0.1265 µM)	relative viability ([2]; first compound 0.4 µM)	relative viability ([2]; first compound 4 µM)	relative viability ([3]; first compound 0.08 µM)	relative viability ([3]; first compound 0.253 µM)	relative viability ([3]; first compound 0.8 µM)	relative viability ([3]; first compound 2.53 µM)	relative viability ([3]; first compound 8 µM)	relative viability ([4]; first compound 0.253 µM)	relative viability ([4]; first compound 0.8 µM)	relative viability ([4]; first compound 2.53 µM)	relative viability ([4]; first compound 8 µM)	relative viability ([2]; first compound 1.265 µM)	relative viability ([4]; first compound 0.08 µM)
NCI-H2085	0.818	0.515	0.682	0.935	0.865	0.772	0.694	0.722	0.875	0.805	0.819	0.889	0.93	0.801	0.917	0.828	0.879		
NCI-H460	0.496	0.833	0.775	0.676	0.606	0.405	0.571	0.771	1.06	0.897	0.978	0.923	0.791	0.89	0.744	0.729	0.699	0.392	0.864
Calu-6									0.79	0.785	0.782	0.756	0.712						
RERF-LC-KJ	0.537	0.521	0.581	0.576	0.643	0.453	0.525	0.422	0.865	0.804	0.859	0.856	0.798	0.712	0.743	0.573	0.56	0.513	0.779
LCLC-103H	0.432	0.485	0.447	0.457	0.502	0.482	0.51	0.388	1.06	1.01	1.11	1.09	1.01	0.773	0.801	0.783	0.653	0.421	0.896
HCC-15	0.677	0.682	0.694	0.693	0.519	0.332	0.507	0.657	0.877	0.811	0.88	0.818	0.872	0.766	0.857	0.807	0.923		0.91
H3255	0.52	0.629	0.577	0.759	0.568	0.632	0.779	0.613	0.933	0.855	1.01	0.875	0.662	0.938	0.787	0.721	0.345	0.824	0.818
NCI-H1792	0.74	0.766	0.706	0.749					1.03	1.05	1.04	0.879	0.87						
NCI-H1563	0.74	0.771	0.749	0.769					0.85	0.937	0.869	0.966	0.79						
NCI-H596	0.838	0.763	0.784	0.736	0.934	0.839	0.978	0.843	0.979	1.05	0.955	0.988	0.902	0.655	0.619	0.711	0.589		0.533
NCI-H2087	0.471	0.616	0.619	0.573	0.324	0.235	0.274	0.181	0.717	0.918	0.889	0.899	1.06	0.701	0.772	0.797	1.14		0.862
NCI-H661	0.707	0.835	0.739	0.634	0.286	0.355	0.378	0.363	1.04	0.939		1.02	0.991	0.724	0.798	0.859	0.797	0.34	0.799
NCI-H522	0.731	0.813	0.693	0.709	0.591	0.476	0.512	0.55						0.902	0.773	0.762	0.836	0.509	0.913
EMC-BAC-2	0.379	0.368	0.421	0.368	0.252	0.276	0.3	0.24	0.799	0.74	0.705	0.763	0.747	0.849	0.464	0.5	0.217	0.271	0.46
NCI-H1355	0.446	0.372	0.472	0.476	0.605	0.552	0.562	0.555	1.12	1.11	1.06	1.08	1.06	0.608	0.642	0.67	0.628	0.565	0.722
NCI-H1299									0.983	0.972	0.968	0.984	1.05						
NCI-H1648	0.242	0.271	0.292	0.245	0.655	0.513	0.984	0.957						0.36	0.398	0.571	0.391	1.02	0.553
EBC-1									0.206	0.168	0.195	0.178	0.185						
NCI-H1395	0.603	0.57	0.71	0.694	0.811	0.749	0.739	0.656						1.13	0.768	0.72	0.481	0.805	0.642
IA-LM									0.927	0.544		0.948	0.87	0.899	0.912	0.939	0.822		1.2
NCI-H1703									0.538	0.573	0.69	1.08	0.723						
NCI-H1793	0.261	0.246	0.302	0.23	0.447	0.32	0.367	0.378						0.789	0.748	0.641	0.551		0.787
